EP0485219B1, “Medicaments for preventing and treating circulatory organ diseases containing spiro-3-heteroazolidine compounds” (SANWA KAGAKU KENKYUSHO CO., LTD., priority 1990, dated 1992)

Assays:
platelet aggregation = experiment: Ex vivo action on inhibiting platelet aggregation after intravenous administration; assay type: in vivo, rat; settings: inhibition of platelet aggregation relative to control; 30.0 mg/kg intravenously, blood gathered five minutes after; inducer collagen
Method: Five minutes after the test compound had been intravenously administered to the tail of a rat, blood was gathered from the descending aorta of the rat which was lightly etherized. Added to this blood was citric acid (3.8% sodium citrate) in a volume ratio of 1/10.
The thus treated blood was centrifuged at 1500 rpm for 5 minutes to obtain a supernatant fluid in the form of PRP. The residues were then again centrifuged at 4°C and 3000 rpm for 10 minutes to obtain a supernatant fluid in the form of PPP. For the platelet aggregation test, NAB HEMA TRACER 601 (Model PAT-60 made by Niko Bioscience Co., Ltd.) was used. […] of PRP were put in a PRP cuvette having a stirrer bar with the transmittance set at 0%, while 300 µl of PPP were put in a PPP cuvette with the transmittance set at 100%. After 1-minute preincubation, 20 µl of an aggregation inducer (collagen or ADP) were introduced.
A control group, to which dimethylacetamide and tartaric acid in a ratio of 2/3 were given in a quantity of 1 ml/kg, was treated similarly to the test group. Upon the addition of the aggregation inducer, a maximum transmittance change was read to find a platelet aggregation change in %. […] Table 3 sets out the results, from it is noted that the present compounds have a significant action on inhibiting platelet aggregation.

right atrium = experiment: Action on extracted guinea pigs' hearts: right atrium sample (heart rate); design: species or system Hartley guinea pigs; settings: for Heart Rates 10^-4(M): suppression at 10^-4 M; for Heart Rates 10^-5(M): suppression at 10^-5 M
Description: (§1) Stunned by receiving a blow on the heads, Hartley guinea pigs (weighing 300-400 g) were fixed on the back regions to extract their hearts. Each of the extracted hearts was placed in a beaker containing the same Krebs-Henseleit solution as used in Test Example 4 and supplied with 95% O₂-5% CO₂ gases, thereby stripping it of blood deposits, and was then passed into a sample forming glass vessel. This vessel was previously filled with a Krebs-Henseleit solution and the above gaseous mixture continued to be supplied thereto during preparing the sample.
(§2) In order to prepare the sample, the right and left atria were cut out of the ventricular muscle along the atriventricular sulcus from the center of both the right and left auricles.
The thus extracted right atrium was suspended in a Magnus tube with a tension of 0.2 to 0.3 g, said tube supplied with 95% O₂ - 5% CO₂ gases, containing 10 ml of a Krebs-Henseleit solution and maintained at 32±1°C. The contraction of the sample was recorded on a recorder through an FD pickup simultaneously with counting and recording the beat with an instantaneous cardiograph unit.
(§3) The actions of the present and control compounds on the right (counting the heart rate) and left (measuring the systole force) atria are reported below.

left atrium = experiment: Action on extracted guinea pigs' hearts: left atrium sample (systole force); design: species or system Hartley guinea pigs; settings: electrically stimulated; for Systole Forces 10^-4(M): suppression at 10^-4 M; for Systole Forces 10^-5(M): suppression at 10^-5 M
Description: as §1, §2
The extracted left atrium was fixed with a micro wire clamp through both the auricles in a Magnus tube supplied with 95% O₂ - 5% CO₂ gases, containing 30 ml of a Krebs-Henseleit solution and maintained at a solution temperature of 32±1°C, and then suspended therein under a checking tension of ca. 0.25 g. While a platinum bipolar electrode attached to the above-mentioned micro wire clamp was in contact with the atrium, stimuli were given to it by 1-Hz, 2-msec. and 10-V rectangular waves derived through an electrical stimulator and an isolator to record the movement of said atrium with an FD pickup connected with it through silk thread.
as §3

Row | SMILES | inhibition of collagen-induced platelet aggregation (platelet aggregation) [%] | Heart Rates 10^-4(M) (right atrium) | Heart Rates 10^-5(M) (right atrium) | Systole Forces 10^-4(M) (left atrium) | Systole Forces 10^-5(M) (left atrium)
1 | CC(=O)Oc1ccccc1C(=O)O [Aspirin] | 77 |  |  |  | 
2 | COc1ccc2c(c1)c(CC(=O)O)c(C)n2C(=O)c1ccc(Cl)cc1 [Indomethacin] | 49 |  |  |  | 
3 | CC(C(O)c1ccc(O)cc1)N1CCC(Cc2ccccc2)CC1 (stereo not shown) [B, ifenprodil] |  | ++ (++ indicates 20% or more suppression) | ++ (++ indicates 20% or more suppression) | + (+ 10-20% suppression) | - (- 0% suppression)
4 | CC(C)NCC(O)COc1cccc2ccccc12 (stereo not shown) [A, propranolol] |  | ++ (++ indicates 20% or more suppression) | ++ (++ indicates 20% or more suppression) | ++ (++ indicates 20% or more suppression) | ++ (++ indicates 20% or more suppression)
